Values quoted from earlier work, collected in patent US6353028B2, “Composition and method for topically treating Peyronie's Disease, Dupuytren's hand contracture, Ledderhose Fibrosis, erectile dysfunction arising from plaque accumulations, and scarring” (priority 1998, dated 2002).

Tested on: Peyronie's disease
Conditions: intra-lesional injection

COc1ccc(CCN(C)CCCC(C#N)(c2ccc(OC)c(OC)c2)C(C)C)cc1OC (stereo not shown) [Verapamil]
success of intra-lesional injections in Peyronie's disease: very limited success
